Where two headings read alike, the source gives them in different places.
Tested on: inflammatory hyperalgesia induced by carrageenan on a rat's paw
Set-up: species or system rat (male Sprague Dawley)
Conditions: in vivo, ip

SMILES: CN1CC[C@]23c4c5ccc(O)c4O[C@H]2[C@@H](O)C=C[C@H]3[C@H]1C5 [morphine]
- protection against hyperalgesia induced by carrageenan (0.3 mg/kg): does not induce statistically significant protection
- increase of pain threshold following a mechanical stimulus applied to the rats' paws (1 mg/kg): 65%
- increase of pain threshold following a mechanical stimulus applied to the rats' paws (3 mg/kg): 97%
